Measured values taken from US9271969B2, “Compounds as inhibitors of diacylglycerol O-acyltransferase type 1 enzyme” (KAINOS MEDICINE, INC., priority 2012, dated 2016).

Tests used:
human DGAT1 = human DGAT1 (Homo sapiens (Human), UniProt O75907); assay: biochemical
Method: For this assay, a source of DGAT1 was needed. In that regard, a commercially available plasmid for expression of DGAT1 (e.g., pCMV6-recombinant human DGAT1 plasmid) was transfected for 24 hours in Hep3B cells. After transfection of the plasmid, human DGAT-1 expression was analyzed by Western blot or RT-PCR using whole cell extracts. […] Human and mouse DGAT activity were determined as follows.
The plates were sealed, incubated overnight and counted the next morning on a liquid scintillation counter and luminometer.
DGAT1 catalyzes the transfer of the radiolabelled decanoyl group onto the sn-3 position of didecanoyl glycerol. The resultant radiolabeled tridecanoyl glycerol (tricaprin) preferentially binds to the hydrophobic coating on the phospholipid-coated radiometric assay plate. The proximity of the radiolabeled product to the solid scintillant incorporated into the bottom of the radiometric assay plate induced for release from the scintillant, which was measured in the liquid scintillation counter and luminometer.
IC50 values of the compounds were determined from concentration-dependent inhibition curves by using commercially available software.

mouse DGAT1 = mouse DGAT1 (Mus musculus (Mouse), UniProt Q9Z2A7); assay: Radiometric DGAT1 assay, mouse liver microsomes; type: biochemical; details: mouse liver microsomes having mouse DGAT1 activity
Excerpt: A second source of DGAT1 activity was human or mouse liver microsomes.

Chain of mouse DGAT1 (Q9Z2A7 whole entry): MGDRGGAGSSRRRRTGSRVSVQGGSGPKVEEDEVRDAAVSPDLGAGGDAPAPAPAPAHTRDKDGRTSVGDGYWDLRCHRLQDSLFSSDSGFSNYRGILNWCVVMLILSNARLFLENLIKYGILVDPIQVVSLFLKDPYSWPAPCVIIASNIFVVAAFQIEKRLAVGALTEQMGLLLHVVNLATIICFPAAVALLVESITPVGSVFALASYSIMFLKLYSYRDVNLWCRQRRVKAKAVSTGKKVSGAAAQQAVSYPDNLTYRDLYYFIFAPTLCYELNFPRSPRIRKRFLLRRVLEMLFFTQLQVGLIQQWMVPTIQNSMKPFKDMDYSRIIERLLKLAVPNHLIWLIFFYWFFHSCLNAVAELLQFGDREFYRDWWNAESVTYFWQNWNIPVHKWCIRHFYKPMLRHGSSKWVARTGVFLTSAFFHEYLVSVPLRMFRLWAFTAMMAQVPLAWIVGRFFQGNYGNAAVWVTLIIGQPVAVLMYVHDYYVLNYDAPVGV
Chain of human DGAT1 (O75907 whole entry): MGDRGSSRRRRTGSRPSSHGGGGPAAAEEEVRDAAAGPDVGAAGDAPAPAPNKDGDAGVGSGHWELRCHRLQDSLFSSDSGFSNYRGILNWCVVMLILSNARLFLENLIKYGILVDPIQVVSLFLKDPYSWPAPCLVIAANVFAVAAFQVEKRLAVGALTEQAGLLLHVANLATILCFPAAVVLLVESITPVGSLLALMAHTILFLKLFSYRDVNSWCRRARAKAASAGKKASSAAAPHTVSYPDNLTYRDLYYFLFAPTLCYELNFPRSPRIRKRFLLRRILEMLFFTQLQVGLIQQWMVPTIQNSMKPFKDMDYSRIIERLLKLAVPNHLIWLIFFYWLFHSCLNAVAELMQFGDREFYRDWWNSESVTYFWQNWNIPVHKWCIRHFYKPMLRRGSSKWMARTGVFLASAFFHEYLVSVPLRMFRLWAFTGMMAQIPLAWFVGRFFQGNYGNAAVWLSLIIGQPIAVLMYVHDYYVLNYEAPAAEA

O=C(O)C[C@H]1CC[C@H](c2ccc(-c3ccc4nc(C(=O)Nc5ccc(C(F)(F)F)cc5)cn4c3)cc2)CC1 [Compound 2, 2-((1r,4r)-4-(4-(2-((4-(Trifluoromethyl)phenyl)carbamoyl)imidazo[1,2-a]pyridin-6-yl)phenyl)-cyclohexyl)acetic acid]
IC50 (human DGAT1): < 10 nM | IC50 (mouse DGAT1): < 200 nM

O=C(O)C[C@H]1CC[C@H](c2ccc(-c3cn4cc(C(=O)NCc5ccc(F)c(OC(F)(F)F)c5)nc4s3)cc2)CC1 [Compound 59, 2-((1r,4r)-4-(4-(6-((4-Fluoro-3-(trifluoromethoxy)benzyl)carbamoyl)imidazo[2,1-b]thiazol-2-yl)phenyl)cyclohexyl)acetic acid]
IC50 (human DGAT1): < 25 nM | IC50 (mouse DGAT1): < 25 nM

O=C(O)C[C@H]1CC[C@H](c2ccc(-c3ccc4nc(C(=O)Nc5ccccc5C(F)(F)F)cn4c3)cc2)CC1 [Compound 34, 2-((1r,4r)-4-(4-(2-((2-(Trifluoromethyl)phenyl)carbamoyl)imidazo[1,2-a]pyridin-6-yl)phenyl)cyclohexyl)acetic acid]
IC50 (human DGAT1): < 150 nM | IC50 (mouse DGAT1): < 450 nM

O=C(O)C[C@H]1CC[C@H](c2ccc(-c3ccc4nc(C(=O)Nc5cc(F)c(F)c(F)c5)cn4c3)cc2)CC1 [Compound 40, 2-((1r,4r)-4-(4-(2-((3,4,5-Trifluorophenyl)carbamoyl)imidazo[1,2-a]pyridin-6-yl)phenyl)cyclohexyl)acetic acid]
IC50 (human DGAT1): < 1 nM | IC50 (mouse DGAT1): < 50 nM

O=C(O)C[C@H]1CC[C@H](c2ccc(-c3ccc4nc(C(=O)Nc5cc(F)ccc5F)cn4c3)cc2)CC1 [Compound 39, 2-((1r,4r)-4-(4-(2-((2,5-Difluorophenyl)carbamoyl)imidazo[1,2-a]pyridin-6-yl)phenyl)cyclohexyl)acetic acid]
IC50 (human DGAT1): < 10 nM | IC50 (mouse DGAT1): < 1 nM

COc1ccccc1NC(=O)c1cn2cc(-c3ccc([C@H]4CC[C@H](CC(=O)O)CC4)cc3)ccc2n1 [Compound 36, 2-((1r,4r)-4-(4-(2-((2-Methoxyphenyl)carbamoyl)imidazo[1,2-a]pyridin-6-yl)phenyl)cyclohexyl)acetic acid]
IC50 (human DGAT1): < 100 nM | IC50 (mouse DGAT1): < 75 nM

O=C(O)C[C@H]1CC[C@H](c2ccc(-c3ccc4nc(C(=O)NCc5ccc(F)c(OC(F)(F)F)c5)cn4c3)cc2)CC1 [Compound 10, 2-((1r,4r)-4-(4-(2-((4-Fluoro-3-(trifluoromethoxy)benzyl)carbamoyl)imidazo[1,2-a]pyridin-6-yl)phenyl)cyclohexyl)acetic acid]
IC50 (human DGAT1): < 75 nM | IC50 (mouse DGAT1): < 75 nM

CC(C)c1ccc(CNC(=O)c2cn3cc(-c4ccc([C@H]5CC[C@H](CC(=O)O)CC5)cc4)ccc3n2)cc1 [Compound 19]
IC50 (human DGAT1): < 10 nM | IC50 (mouse DGAT1): < 1 nM

COc1ccc(OC(F)(F)F)cc1CNC(=O)c1cn2cc(-c3ccc([C@H]4CC[C@H](CC(=O)O)CC4)cc3)ccc2n1 [Compound 18, 2-((1r,4r)-4-(4-(2-((2-Methoxy-5-(trifluoromethoxy)benzyl)carbamoyl)imidazo[1,2-a]-pyridin-6-yl)phenyl)cyclohexyl)acetic acid]
IC50 (human DGAT1): < 10 nM | IC50 (mouse DGAT1): < 1 nM

COc1ccc(CNC(=O)c2cn3cc(-c4ccc([C@H]5CC[C@H](CC(=O)O)CC5)cc4)sc3n2)cc1 [Compound 57, 2-((1r,4r)-4-(4-(6-((4-Methoxybenzyl)carbamoyl)imidazo[2,1-b]thiazol-2-yl)phenyl)cyclo-hexyl)acetic acid]
IC50 (human DGAT1): < 10 nM | IC50 (mouse DGAT1): < 150 nM

Cc1ccccc1CNC(=O)c1cn2cc(-c3ccc([C@H]4CC[C@H](CC(=O)O)CC4)cc3)ccc2n1 [Compound 37, 2-((1r,4r)-4-(4-(2-((2-Methylbenzyl)carbamoyl)imidazo[1,2-a]pyridin-6-yl)phenyl)cyclohexyl)acetic acid]
IC50 (human DGAT1): < 10 nM | IC50 (mouse DGAT1): < 50 nM

Cc1cccc(C)c1NC(=O)c1cn2cc(-c3ccc([C@H]4CC[C@H](CC(=O)O)CC4)cc3)ccc2n1 [Compound 38, 2-((1r,4r)-4-(4-(2-((2,6-Dimethylphenyl)carbamoyl)imidazo[1,2-a]pyridin-6-yl)phenyl)cyclohexyl)acetic acid]
IC50 (human DGAT1): < 200 nM | IC50 (mouse DGAT1): < 1 nM

O=C(O)C[C@H]1CC[C@H](c2ccc(-c3ccc4nc(C(=O)Nc5ccccc5F)cn4c3)cc2)CC1 [Compound 35, 2-((1r,4r)-4-(4-(2-((2-Fluorophenyl)carbamoyl)imidazo[1,2-a]pyridin-6-yl)phenyl)cyclohexyl)acetic acid]
IC50 (human DGAT1): < 200 nM | IC50 (mouse DGAT1): < 550 nM

O=C(O)C[C@H]1CC[C@H](c2ccc(-c3ccc4nc(C(=O)NCc5cc(OC(F)(F)F)ccc5F)cn4c3)cc2)CC1 [Compound 9, 2-((1r,4r)-4-(4-(2-((2-Fluoro-5-(trifluoromethoxy)benzyl)carbamoyl)imidazo[1,2-a]pyridin-6-yl)phenyl)cyclohexyl)acetic acid]
IC50 (human DGAT1): < 50 nM | IC50 (mouse DGAT1): < 50 nM

O=C(O)C[C@H]1CC[C@H](c2ccc(-c3ccc4nc(C(=O)Nc5ccc(OC(F)(F)F)cc5)cn4c3)cc2)CC1 [Compound 3, 2-((1r,4r)-4-(4-(2-((4-(Trifluoromethoxy)phenyl)carbamoyl)imidazo[1,2-a]pyridin-6-yl)-phenyl)cyclohexyl)acetic acid]
IC50 (human DGAT1): < 10 nM | IC50 (mouse DGAT1): < 75 nM

O=C(O)C[C@H]1CC[C@H](c2ccc(-c3ccc4nc(C(=O)Nc5ccc(F)cc5C(F)(F)F)cn4c3)cc2)CC1 [Compound 33, 2-((1r,4r)-4-(4-(2-((4-Fluoro-2-(trifluoromethyl)phenyl)carbamoyl)imidazo[1,2-a]pyridin-6-yl)phenyl)cyclohexyl)acetic acid]
IC50 (human DGAT1): < 250 nM | IC50 (mouse DGAT1): < 750 nM
